One may read the GI50 as the concentration that inhibits growth by half. High values mean less potent growth inhibition, low ones more potent growth inhibition.

Series [1] deals with MCF7. The series is described as follows: Antiproliferative activity against human MCF7 cells after 96 hrs by MTT assay. It counts as functional. Conditions: MCF7, 96 h.
In series [2] the test system is MCF7. Briefly: Cell cycle arrest in human MCF7 cells assessed as accumulation at G0/G1 phase at 0.5 uM after 24 hrs by propidium iodide staining based flow cytometry (reference value: 57.83%). It counts as functional. (In general: In flow cytometry, cells or beads pass a laser one at a time.)
In series [3] the test system is MCF7. Briefly: Cell cycle arrest in human MCF7 cells assessed as accumulation at sub-G1 phase at 1 uM after 24 hrs by propidium iodide staining based flow cytometry (reference value: 1.78%). It counts as functional.
Series [4] deals with MCF7. Briefly: Cell cycle arrest in human MCF7 cells assessed as accumulation at S-phase at 0.5 uM after 48 hrs by propidium iodide staining based flow cytometry (reference value: 18.39%). It is filed as functional.
The test system of series [5] is MCF7. The series is described as follows: Cell cycle arrest in human MCF7 cells assessed as accumulation at sub-G1 phase at 1 uM after 48 hrs by propidium iodide staining based flow cytometry (reference value: 0.18%). It is filed as functional.
The test system of series [6] is NCI/ADR-RES. The series is described as follows: Cell cycle arrest in human MCF7/ADR cells assessed as accumulation at G0/G1 phase at 1 uM after 24 hrs by propidium iodide staining based flow cytometry (reference value: 45.98%). It is filed as functional.
Series [7] relates to NCI/ADR-RES. The series is described as follows: Cell cycle arrest in human MCF7/ADR cells assessed as accumulation at G2/M phase at 1 uM after 24 hrs by propidium iodide staining based flow cytometry (reference value: 27.75%). It is filed as functional.
The test system of series [8] is NCI/ADR-RES. The series is described as follows: Cell cycle arrest in human MCF7/ADR cells assessed as accumulation at sub-G1 phase at 0.5 uM after 48 hrs by propidium iodide staining based flow cytometry (reference value: 0.25%). It is filed as functional.
Series [9] concerns NCI/ADR-RES. The series is described as follows: Cell cycle arrest in human MCF7/ADR cells assessed as accumulation at sub-G1 phase at 1 uM after 48 hrs by propidium iodide staining based flow cytometry (reference value: 0.25%). It counts as functional.
For series [10], the system named is NCI/ADR-RES. The series is described as follows: Cell cycle arrest in human MCF7/ADR cells assessed as accumulation at G0/G1 phase at 1 uM after 48 hrs by propidium iodide staining based flow cytometry (reference value: 38.76%). It is filed as functional.
Series [11] can be described thus: Apparent terminal half life in Sprague-Dawley rat at 10 mg/kg, iv administered as single dose by LC-MS/MS analysis. The conditions noted are these: in vivo, read-out: betat1/2(app) (converted). It counts as ADME, organism-based.
Series [12] can be described thus: Plasma concentration in Sprague-Dawley rat at 10 mg/kg, iv administered as single dose measured at 0.083 hrs post dosing by LC-MS/MS analysis. It counts as ADME, organism-based.
The nature of series [13]: Plasma concentration in Sprague-Dawley rat at 10 mg/kg, iv administered as single dose measured at 0.25 hrs post dosing by LC-MS/MS analysis. It is filed as ADME, organism-based.
Series [14] in a line: Plasma concentration in Sprague-Dawley rat at 10 mg/kg, iv administered as single dose measured at 8 hrs post dosing by LC-MS/MS analysis. It is filed as ADME, organism-based.
Series [15] can be described thus: Plasma concentration in Sprague-Dawley rat at 10 mg/kg, iv administered as single dose measured at 24 hrs post dosing by LC-MS/MS analysis. It is filed as ADME, organism-based.

Take `C[C@H]1[C@@H](Oc2ccc(-c3cc(-c4ccccc4)[nH]n3)cc2)O[C@@H]2O[C@@]3(C)CC[C@H]4[C@H](C)CC[C@@H]1[C@@]24OO3`: in the series on MCF7 [1], halving of growth (GI50) required 210 nM. In addition, the Activity worked out at 70.95% in the series with MCF7 [2]; 0.56% in the series with MCF7 [3]; 3.87% in the series on MCF7 [4]; 1.44% with MCF7 [5]; 61.78% with NCI/ADR-RES [6]; 23.83% in the series with NCI/ADR-RES [7]. The Activity stood at 2.81% with NCI/ADR-RES [8], 10.99% in the series with NCI/ADR-RES [9] and 56.01% in the series on NCI/ADR-RES [10]. In addition, the half-life in [11] was 215 min. Also, the concentration at 0.083 h in [12] was 4460 ng/mL. The concentration at 0.25 h in series [13] worked out at 1720 ng/mL. The same molecule showed a concentration at 8 h in series [14] of 34.1 ng/mL. The molecule also came in with a concentration at 24 h in series [15] of 2.65 ng/mL.

The values above are taken from ChEMBL document CHEMBL4251553, “Synthesis, anticancer evaluation and pharmacokinetic study of novel 10-O-phenyl ethers of dihydroartemisinin” (Eur J Med Chem, 2017).
